In paper PMC8550792, “Evolution of kinase polypharmacology across HSP90 drug discovery” (Cell Chemical Biology, 2021):

Assays:
Test in all cases: biochemical
Assay type in all cases: biochemical
382 unique human kinases [1] = target: T1, 382 unique human kinases (Homo sapiens, UniProt P21802, E565G); conditions: kinase FGFR2 (E565G), compound 10 uM; for remaining activity at 10 µM: read-out: % Enzyme Activity (relative to DMSO controls)
T1 construct: purchased Reaction Biology (HotSpot contract assay)

382 unique human kinases [2] = target: T2, 382 unique human kinases (Homo sapiens, UniProt Q9NY57); conditions: kinase STK32B/YANK2, compound 10 uM; for remaining activity at 10 µM: read-out: % Enzyme Activity (relative to DMSO controls)
T2 construct: purchased Reaction Biology (HotSpot contract assay)

382 unique human kinases [3] = target: 382 unique human kinases (Homo sapiens, UniProt Q9H1R3); conditions: kinase MLCK2/MYLK2, compound 10 uM; for remaining activity at 10 µM: read-out: % Enzyme Activity (relative to DMSO controls)
382 unique human kinases [4] = target: T3, 382 unique human kinases (Homo sapiens, UniProt Q15139); conditions: PKCmu/PRKD1, 10 uM; for remaining activity at 10 µM: read-out: % Enzyme Activity (relative to DMSO controls)
T3 construct: purchased Reaction Biology (HotSpot contract assay)
T3 sequence (Q15139 1-912): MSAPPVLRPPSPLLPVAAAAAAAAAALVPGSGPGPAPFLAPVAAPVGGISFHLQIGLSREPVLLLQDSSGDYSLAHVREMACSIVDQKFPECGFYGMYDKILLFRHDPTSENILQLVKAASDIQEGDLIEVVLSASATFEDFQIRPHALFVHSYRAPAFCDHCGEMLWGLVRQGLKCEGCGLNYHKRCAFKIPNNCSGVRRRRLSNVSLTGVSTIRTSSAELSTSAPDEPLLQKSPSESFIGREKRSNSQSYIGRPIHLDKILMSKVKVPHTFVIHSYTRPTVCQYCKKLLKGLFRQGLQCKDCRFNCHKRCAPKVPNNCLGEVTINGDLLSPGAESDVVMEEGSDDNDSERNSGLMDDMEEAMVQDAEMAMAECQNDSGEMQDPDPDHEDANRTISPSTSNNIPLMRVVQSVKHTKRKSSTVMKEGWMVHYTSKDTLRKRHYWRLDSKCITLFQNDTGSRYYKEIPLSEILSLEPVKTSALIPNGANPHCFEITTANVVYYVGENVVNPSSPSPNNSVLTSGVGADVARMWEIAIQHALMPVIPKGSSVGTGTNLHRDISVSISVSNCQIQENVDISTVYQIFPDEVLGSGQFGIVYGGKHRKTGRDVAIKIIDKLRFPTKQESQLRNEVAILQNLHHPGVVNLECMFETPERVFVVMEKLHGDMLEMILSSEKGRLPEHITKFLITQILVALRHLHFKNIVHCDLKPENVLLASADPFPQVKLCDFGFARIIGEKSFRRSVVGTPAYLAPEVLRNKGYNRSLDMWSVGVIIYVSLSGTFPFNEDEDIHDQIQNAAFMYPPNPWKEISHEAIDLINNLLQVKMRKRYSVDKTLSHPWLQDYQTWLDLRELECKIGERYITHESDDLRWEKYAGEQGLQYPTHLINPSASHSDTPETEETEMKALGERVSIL

382 unique human kinases [5] = target: T4, 382 unique human kinases (Homo sapiens, UniProt P29597); conditions: TYK2, [ATP] 15 µM, compound 10 uM; for remaining activity at 10 µM: read-out: % Enzyme Activity (relative to DMSO controls)
T4 construct: purchased Reaction Biology (HotSpot contract assay)

382 unique human kinases [6] = target: T5, 382 unique human kinases (Homo sapiens, UniProt P35626); conditions: GRK3, 10 uM; for remaining activity at 10 µM: read-out: % Enzyme Activity (relative to DMSO controls)
T5 construct: purchased Reaction Biology (HotSpot contract assay)
T5 sequence (P35626 1-688): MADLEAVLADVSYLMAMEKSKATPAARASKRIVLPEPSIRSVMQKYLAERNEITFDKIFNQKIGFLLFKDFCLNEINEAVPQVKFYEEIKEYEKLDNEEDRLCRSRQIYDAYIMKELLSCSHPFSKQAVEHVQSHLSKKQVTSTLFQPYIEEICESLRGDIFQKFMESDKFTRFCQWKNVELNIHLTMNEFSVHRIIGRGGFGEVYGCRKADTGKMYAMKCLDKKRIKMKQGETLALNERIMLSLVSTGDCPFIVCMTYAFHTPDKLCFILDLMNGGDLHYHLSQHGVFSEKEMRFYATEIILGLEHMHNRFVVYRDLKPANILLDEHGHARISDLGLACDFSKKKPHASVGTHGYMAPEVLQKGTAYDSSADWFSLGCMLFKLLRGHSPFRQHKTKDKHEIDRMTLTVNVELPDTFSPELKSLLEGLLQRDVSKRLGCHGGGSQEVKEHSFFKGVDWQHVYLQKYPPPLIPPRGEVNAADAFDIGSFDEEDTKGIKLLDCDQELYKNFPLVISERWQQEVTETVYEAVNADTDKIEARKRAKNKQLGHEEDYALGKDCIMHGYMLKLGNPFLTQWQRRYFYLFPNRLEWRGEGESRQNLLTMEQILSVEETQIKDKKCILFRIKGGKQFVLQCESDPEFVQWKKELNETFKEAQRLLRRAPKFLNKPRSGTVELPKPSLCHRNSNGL

382 unique human kinases [7] = target: T6, 382 unique human kinases (Homo sapiens, UniProt P17612); conditions: PKA, 10 uM; for remaining activity at 10 µM: read-out: % Enzyme Activity (relative to DMSO controls)
T6 construct: purchased Reaction Biology (HotSpot contract assay)

T1 sequence (P21802 22-821 E565G): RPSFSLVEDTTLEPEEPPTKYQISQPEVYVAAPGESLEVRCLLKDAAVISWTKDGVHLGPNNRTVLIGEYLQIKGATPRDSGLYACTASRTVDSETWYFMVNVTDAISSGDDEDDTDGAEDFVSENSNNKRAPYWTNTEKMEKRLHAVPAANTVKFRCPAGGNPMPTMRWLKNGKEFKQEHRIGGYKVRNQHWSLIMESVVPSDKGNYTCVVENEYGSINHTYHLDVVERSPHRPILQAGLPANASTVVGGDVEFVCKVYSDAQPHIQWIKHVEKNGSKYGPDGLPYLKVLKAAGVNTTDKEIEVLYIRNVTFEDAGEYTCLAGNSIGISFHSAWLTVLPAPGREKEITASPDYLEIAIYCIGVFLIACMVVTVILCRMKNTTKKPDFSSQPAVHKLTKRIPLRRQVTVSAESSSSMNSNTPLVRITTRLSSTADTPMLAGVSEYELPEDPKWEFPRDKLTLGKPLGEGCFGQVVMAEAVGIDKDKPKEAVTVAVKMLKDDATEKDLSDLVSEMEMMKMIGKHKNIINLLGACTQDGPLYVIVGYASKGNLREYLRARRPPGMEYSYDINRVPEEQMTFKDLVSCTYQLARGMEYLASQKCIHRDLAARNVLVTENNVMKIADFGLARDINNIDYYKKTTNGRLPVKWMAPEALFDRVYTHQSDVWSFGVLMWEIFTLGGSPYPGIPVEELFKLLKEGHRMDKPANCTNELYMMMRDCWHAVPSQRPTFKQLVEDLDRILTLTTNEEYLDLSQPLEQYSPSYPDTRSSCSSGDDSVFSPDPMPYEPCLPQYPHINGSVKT
T4 sequence (P29597 whole entry): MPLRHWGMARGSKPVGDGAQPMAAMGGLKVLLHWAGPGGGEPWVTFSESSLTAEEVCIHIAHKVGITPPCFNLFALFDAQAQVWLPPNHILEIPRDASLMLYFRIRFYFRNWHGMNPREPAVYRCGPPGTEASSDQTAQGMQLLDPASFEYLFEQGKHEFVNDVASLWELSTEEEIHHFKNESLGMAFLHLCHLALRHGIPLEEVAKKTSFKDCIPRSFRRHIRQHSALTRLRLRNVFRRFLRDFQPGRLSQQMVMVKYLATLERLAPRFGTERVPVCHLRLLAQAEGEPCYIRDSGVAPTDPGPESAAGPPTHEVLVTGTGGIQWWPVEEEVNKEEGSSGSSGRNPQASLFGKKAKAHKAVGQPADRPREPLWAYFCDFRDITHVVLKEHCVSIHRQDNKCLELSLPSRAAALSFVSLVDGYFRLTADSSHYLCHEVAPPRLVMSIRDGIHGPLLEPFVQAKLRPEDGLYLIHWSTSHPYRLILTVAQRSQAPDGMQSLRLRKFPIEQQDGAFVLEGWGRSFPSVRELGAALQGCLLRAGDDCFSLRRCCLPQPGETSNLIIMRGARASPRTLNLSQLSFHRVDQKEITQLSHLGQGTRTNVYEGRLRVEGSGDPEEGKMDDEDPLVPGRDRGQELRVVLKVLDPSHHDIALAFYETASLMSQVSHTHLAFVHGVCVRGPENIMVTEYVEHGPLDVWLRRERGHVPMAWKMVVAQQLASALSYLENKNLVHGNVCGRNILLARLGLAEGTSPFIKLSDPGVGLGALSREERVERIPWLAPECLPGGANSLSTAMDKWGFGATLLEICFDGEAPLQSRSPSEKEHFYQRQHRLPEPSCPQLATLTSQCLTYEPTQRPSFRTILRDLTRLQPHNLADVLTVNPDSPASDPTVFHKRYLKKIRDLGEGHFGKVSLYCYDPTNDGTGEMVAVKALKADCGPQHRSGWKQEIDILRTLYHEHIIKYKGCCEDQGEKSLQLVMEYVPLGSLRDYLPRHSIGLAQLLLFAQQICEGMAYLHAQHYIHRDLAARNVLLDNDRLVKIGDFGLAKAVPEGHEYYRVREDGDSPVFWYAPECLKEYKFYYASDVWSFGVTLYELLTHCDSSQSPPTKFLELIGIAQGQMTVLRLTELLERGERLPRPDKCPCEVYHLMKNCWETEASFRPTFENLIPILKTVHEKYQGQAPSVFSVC
382 unique human kinases (Homo sapiens, UniProt Q9H1R3), sequence (Q9H1R3 whole entry): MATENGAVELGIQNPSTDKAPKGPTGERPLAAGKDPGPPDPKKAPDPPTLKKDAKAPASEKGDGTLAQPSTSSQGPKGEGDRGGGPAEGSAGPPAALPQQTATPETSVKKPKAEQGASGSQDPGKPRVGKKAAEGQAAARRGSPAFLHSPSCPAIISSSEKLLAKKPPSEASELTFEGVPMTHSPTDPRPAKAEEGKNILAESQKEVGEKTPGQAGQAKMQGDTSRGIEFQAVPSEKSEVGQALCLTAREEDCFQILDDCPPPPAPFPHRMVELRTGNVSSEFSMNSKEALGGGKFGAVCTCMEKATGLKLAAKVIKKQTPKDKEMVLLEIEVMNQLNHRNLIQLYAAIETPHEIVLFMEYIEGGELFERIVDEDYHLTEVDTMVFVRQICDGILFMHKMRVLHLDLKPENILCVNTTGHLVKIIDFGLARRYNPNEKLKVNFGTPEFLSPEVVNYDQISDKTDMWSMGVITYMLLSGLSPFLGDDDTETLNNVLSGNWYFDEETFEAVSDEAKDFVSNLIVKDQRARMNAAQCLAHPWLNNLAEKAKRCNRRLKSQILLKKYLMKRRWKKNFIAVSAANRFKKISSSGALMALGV
T2 sequence (Q9NY57 whole entry): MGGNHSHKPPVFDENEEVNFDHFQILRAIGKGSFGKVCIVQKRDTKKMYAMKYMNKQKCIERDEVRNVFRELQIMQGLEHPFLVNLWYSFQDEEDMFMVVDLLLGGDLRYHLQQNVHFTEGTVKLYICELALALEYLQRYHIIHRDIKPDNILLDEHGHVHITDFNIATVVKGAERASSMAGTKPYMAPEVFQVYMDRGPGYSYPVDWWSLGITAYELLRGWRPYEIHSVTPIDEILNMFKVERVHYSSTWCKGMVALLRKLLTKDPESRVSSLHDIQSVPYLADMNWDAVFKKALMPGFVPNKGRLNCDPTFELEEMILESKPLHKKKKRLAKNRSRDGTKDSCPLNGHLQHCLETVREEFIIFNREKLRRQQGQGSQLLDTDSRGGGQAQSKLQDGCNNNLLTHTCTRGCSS

`CC(C)c1cc(-c2n[nH]c(=O)n2-c2ccc3c(ccn3C)c2)c(O)cc1O` [Ganetespib (STA9090)] gave a remaining activity at 10 µM (382 unique human kinases [1]) of 79.4%, a remaining activity at 10 µM (382 unique human kinases [2]) of 107% and a remaining activity at 10 µM (382 unique human kinases [3]) of 80.2%. The remaining activity at 10 µM (382 unique human kinases [4]) was 84%.
Molecule `CC(C)c1cc(-c2n[nH]c(=O)n2-c2ccc3c(ccn3C)c2)c(O)cc1O` [Ganetespib] has a remaining activity at 10 µM (382 unique human kinases [5]) of 62.6%, a remaining activity at 10 µM (382 unique human kinases [6]) of 109% and a remaining activity at 10 µM (382 unique human kinases [7]) of 91%.
With `CCNC(=O)c1noc(-c2cc(C(C)C)c(O)cc2O)c1-c1ccc(CN2CCOCC2)cc1` [Luminespib (AUY-922)] the “% Enzyme Activity (relative to DMSO controls)” value (382 unique human kinases [1]) was 97.20%, the remaining activity at 10 µM (382 unique human kinases [1]) was 98.6% and the “% Enzyme Activity (relative to DMSO controls)” value (382 unique human kinases [2]) was 88.50%. The remaining activity at 10 µM (382 unique human kinases [2]) was 88.8%, the “% Enzyme Activity (relative to DMSO controls)” value (382 unique human kinases [3]) was 91.17% and the remaining activity at 10 µM (382 unique human kinases [3]) was 95.1%. For the same molecule, the “% Enzyme Activity (relative to DMSO controls)” value (382 unique human kinases [4]) was 86.44% and the remaining activity at 10 µM (382 unique human kinases [4]) was 86.5%.
`CCNC(=O)c1noc(-c2cc(C(C)C)c(O)cc2O)c1-c1ccc(CN2CCOCC2)cc1` [Luminespib] was tested, and the “% Enzyme Activity (relative to DMSO controls)” value (382 unique human kinases [5]) was 101.11%, the remaining activity at 10 µM (382 unique human kinases [5]) was 102% and the “% Enzyme Activity (relative to DMSO controls)” value (382 unique human kinases [6]) was 96.02%. For the same molecule, the remaining activity at 10 µM (382 unique human kinases [6]) was 97.9%, the “% Enzyme Activity (relative to DMSO controls)” value (382 unique human kinases [7]) was 108.65% and the remaining activity at 10 µM (382 unique human kinases [7]) was 111%.
